Measured values as given in US20230085307A1, “PYRIDAZINONE COMPOUND AND HERBICIDE” (NISSAN CHEMICAL CORPORATION, priority 2019, published 2023).

Experiments:
Japanese bulrush = assay: Test Example 1: herbicidal activity, application before weed generation under submerged conditions (Table 16, symbol B); format: in vivo, Japanese bulrush (Schoenoplectus juncoides); settings: 320 g/ha applied herbicide
How it was run: (§1)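 Emulsion formulation, water-diluted to set dose, was put onto the flooded surface (4 cm depth, alluvial soil) the same day weeds were sown and 2.5-leaf rice transplanted. After 3 weeks at 25-30 °C under glass, each species was rated 0 (≤5% kill) to 5 (≥90% kill).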

oval-leafed pondweed = assay: Test Example 1: herbicidal activity, application before weed generation under submerged conditions (Table 16, symbol C); format: in vivo, oval-leafed pondweed (Monochoria vaginalis); settings: 320 g/ha applied herbicide
How it was run: as §1

late watergrass = assay: Test Example 2: herbicidal activity, application during weed generation under submerged conditions (Table 17, symbol A); format: in vivo, late watergrass (Echinochloa oryzicola); settings: AAH 320 g/ha; application during weed generation, submerged conditions
How it was run: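 In this pot test, flooded alluvial soil (water depth 4 cm) holds all three species sown as a mixture. Once seedlings have one to two leaves, the compound's emulsion, thinned with water to the intended dose, is poured on the water; grading follows after three weeks on the earlier criteria.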

barnyard grass [1] = assay: Test Example 3: herbicidal effect by foliage application, Wagner pot (Table 18, symbol H); format: in vivo, barnyard grass (Echinochloa crus-galli); settings: 320 g/ha
How it was run: (§2)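 Plants were sown in alluvial soil held under 0.1–0.5 cm standing water and grown 14 days in a greenhouse at 25–30 °C. An emulsifiable formulation, water-diluted to the set dose, was then sprayed onto the foliage, and effects were scored three weeks later using previously defined criteria.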

Chinese sprangletop = assay: Test Example 3: herbicidal effect by foliage application, Wagner pot (Table 18, symbol D); format: in vivo, chinese sprangletop (Leptochloa chinensis); settings: 320 g/ha
How it was run: as §2

rice flat sedge = assay: Test Example 3: herbicidal effect by foliage application, Wagner pot (Table 18, symbol E); format: in vivo, rice flat sedge (Cyperus iria); settings: 320 g/ha
How it was run: as §2

barnyard grass [2] = assay: Test Example 4: herbicidal effect by soil treatment (Table 19, symbol H); format: in vivo, barnyard grass (Echinochloa crus-galli); settings: 320 g/ha
How it was run: (§3)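 Three weeks of greenhouse growth at 25° C. to 30° C. followed a uniform surface spray of water-diluted emulsion at a predetermined herbicide amount. Seeds had been sown beforehand under about 1.5 cm of sterilized diluvial soil. Grading followed criteria set out in an earlier test.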

wild oat [3] = assay: Test Example 4: herbicidal effect by soil treatment (Table 19, symbol I); format: in vivo, wild oat (Avena fatua); settings: 320 g/ha
How it was run: as §3

windgrass [4] = assay: Test Example 4: herbicidal effect by soil treatment (Table 19, symbol L); format: in vivo, windgrass (Apera spica-venti); settings: 320 g/ha
How it was run: as §3

velvetleaf [5] = assay: Test Example 4: herbicidal effect by soil treatment (Table 19, symbol M); format: in vivo, velvetleaf (Abutilon theophrasti); settings: 320 g/ha
How it was run: as §3

lambsquarters = assay: Test Example 4: herbicidal effect by soil treatment (Table 19, symbol O); format: in vivo, lambsquarters (Chenopodium album); settings: 320 g/ha
How it was run: as §3

green foxtail = assay: Test Example 5: herbicidal effect by foliage application, plastic box (Table 20, symbol G); format: in vivo, green foxtail (Setaria viridis); settings: foliage application, 320 g/ha, evaluated three weeks after application
How it was run: (§4)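 Plants sown in sterilized diluvial soil and grown 14 days in a greenhouse at 25° C to 30° C, then sprayed on the foliage with the compound's emulsion diluted in water to a predetermined herbicide amount. Injury to weeds and crops scored three weeks after application on a visual rating scale.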

wild oat [6] = assay: Test Example 5: herbicidal effect by foliage application, plastic box (Table 20, symbol I); format: in vivo, wild oat (Avena fatua); settings: foliage application, 320 g/ha, evaluated three weeks after application
How it was run: as §4

blackgrass = assay: Test Example 5: herbicidal effect by foliage application, plastic box (Table 20, symbol J); format: in vivo, blackgrass (Alopecurus myosuroides); settings: foliage application, 320 g/ha, evaluated three weeks after application
How it was run: as §4

windgrass [7] = assay: Test Example 5: herbicidal effect by foliage application, plastic box (Table 20, symbol L); format: in vivo, windgrass (Apera spica-venti); settings: foliage application, 320 g/ha, evaluated three weeks after application
How it was run: as §4

velvetleaf [8] = assay: Test Example 5: herbicidal effect by foliage application, plastic box (Table 20, symbol M); format: in vivo, velvetleaf (Abutilon theophrasti); settings: foliage application, 320 g/ha, evaluated three weeks after application
How it was run: as §4

chickweed = assay: Test Example 5: herbicidal effect by foliage application, plastic box (Table 20, symbol P); format: in vivo, common chickweed (Stellaria media); settings: foliage application, 320 g/ha, evaluated three weeks after application
How it was run: as §4

SMILES	Herbicidal effect on B: Japanese bulrush (grade 0-5) (Japanese bulrush)	Herbicidal effect on C: oval-leafed pondweed (grade 0-5) (oval-leafed pondweed)	herbicidal effect rating, A: late watergrass (late watergrass)	herbicidal effect on H (barnyard grass), rating 0-5 (barnyard grass [1])	herbicidal effect on D (Chinese sprangletop), rating 0-5 (Chinese sprangletop)	herbicidal effect on E (rice flat sedge), rating 0-5 (rice flat sedge)	herbicidal effect rating, H: barnyard grass (barnyard grass [2])	herbicidal effect rating, I: wild oat (wild oat [3])	herbicidal effect rating, L: windgrass (windgrass [4])	herbicidal effect rating, M: velvetleaf (velvetleaf [5])	herbicidal effect rating, O: lambsquarters (lambsquarters)	herbicidal effect on G: green foxtail (green foxtail)	herbicidal effect on I: wild oat (wild oat [6])	herbicidal effect on J: blackgrass (blackgrass)	herbicidal effect on L: windgrass (windgrass [7])	herbicidal effect on M: velvetleaf (velvetleaf [8])	herbicidal effect on P: chickweed (chickweed)
C#CCOc1ccc(-c2sc3ccc(F)cc3c2-c2c(O)c(C)nn(C)c2=O)cc1 [2-053]	3 (Herbicidal rate of 40% or more and less than 70%)	4 (Herbicidal rate of 70% or more and less than 90%)	0 (Herbicidal rate of 5% or less (almost no effect))	5 (Herbicidal rate of 90% or more (almost completely withered))	5 (Herbicidal rate of 90% or more (almost completely withered))	4 (Herbicidal rate of 70% or more and less than 90%)	2 (Herbicidal rate of 20% or more and less than 40%)	0 (Herbicidal rate of 5% or less (almost no effect))	0 (Herbicidal rate of 5% or less (almost no effect))	3 (Herbicidal rate of 40% or more and less than 70%)	3 (Herbicidal rate of 40% or more and less than 70%)	5 (Herbicidal rate of 90% or more (almost completely withered))	2 (Herbicidal rate of 20% or more and less than 40%)	4 (Herbicidal rate of 70% or more and less than 90%)	4 (Herbicidal rate of 70% or more and less than 90%)	5 (Herbicidal rate of 90% or more (almost completely withered))	5 (Herbicidal rate of 90% or more (almost completely withered))
CSc1ccc(-c2sc3ccc(F)cc3c2-c2c(O)c(C)nn(C)c2=O)cc1 [2-076]	0 (Herbicidal rate of 5% or less (almost no effect))	0 (Herbicidal rate of 5% or less (almost no effect))	2 (Herbicidal rate of 20% or more and less than 40%)	5 (Herbicidal rate of 90% or more (almost completely withered))	5 (Herbicidal rate of 90% or more (almost completely withered))	5 (Herbicidal rate of 90% or more (almost completely withered))	3 (Herbicidal rate of 40% or more and less than 70%)	0 (Herbicidal rate of 5% or less (almost no effect))	4 (Herbicidal rate of 70% or more and less than 90%)	2 (Herbicidal rate of 20% or more and less than 40%)	3 (Herbicidal rate of 40% or more and less than 70%)	5 (Herbicidal rate of 90% or more (almost completely withered))	5 (Herbicidal rate of 90% or more (almost completely withered))	4 (Herbicidal rate of 70% or more and less than 90%)	5 (Herbicidal rate of 90% or more (almost completely withered))	5 (Herbicidal rate of 90% or more (almost completely withered))	5 (Herbicidal rate of 90% or more (almost completely withered))
CCCC(=O)Oc1c(C)nn(C)c(=O)c1-c1c(-c2ccc(SC)cc2)sc2ccc(F)cc12 [2-077]	4 (Herbicidal rate of 70% or more and less than 90%)	5 (Herbicidal rate of 90% or more (almost completely withered))	4 (Herbicidal rate of 70% or more and less than 90%)	5 (Herbicidal rate of 90% or more (almost completely withered))	5 (Herbicidal rate of 90% or more (almost completely withered))	5 (Herbicidal rate of 90% or more (almost completely withered))	3 (Herbicidal rate of 40% or more and less than 70%)	2 (Herbicidal rate of 20% or more and less than 40%)	3 (Herbicidal rate of 40% or more and less than 70%)	3 (Herbicidal rate of 40% or more and less than 70%)	5 (Herbicidal rate of 90% or more (almost completely withered))	5 (Herbicidal rate of 90% or more (almost completely withered))	5 (Herbicidal rate of 90% or more (almost completely withered))	4 (Herbicidal rate of 70% or more and less than 90%)	5 (Herbicidal rate of 90% or more (almost completely withered))	5 (Herbicidal rate of 90% or more (almost completely withered))	5 (Herbicidal rate of 90% or more (almost completely withered))
CON=C(C)c1ccc(-c2sc3ccc(F)cc3c2-c2c(O)c(C)nn(C)c2=O)cc1 [2-079]	3 (Herbicidal rate of 40% or more and less than 70%)	1 (Herbicidal rate of 5% or more and less than 20%)	0 (Herbicidal rate of 5% or less (almost no effect))	5 (Herbicidal rate of 90% or more (almost completely withered))	4 (Herbicidal rate of 70% or more and less than 90%)	5 (Herbicidal rate of 90% or more (almost completely withered))	4 (Herbicidal rate of 70% or more and less than 90%)	0 (Herbicidal rate of 5% or less (almost no effect))	0 (Herbicidal rate of 5% or less (almost no effect))	4 (Herbicidal rate of 70% or more and less than 90%)	5 (Herbicidal rate of 90% or more (almost completely withered))	5 (Herbicidal rate of 90% or more (almost completely withered))	5 (Herbicidal rate of 90% or more (almost completely withered))	3 (Herbicidal rate of 40% or more and less than 70%)	5 (Herbicidal rate of 90% or more (almost completely withered))	5 (Herbicidal rate of 90% or more (almost completely withered))	5 (Herbicidal rate of 90% or more (almost completely withered))
CCCC(=O)Oc1c(C)nn(C)c(=O)c1-c1c(-c2ccc(C(C)=NOC)cc2)sc2ccc(F)cc12 [2-080]	5 (Herbicidal rate of 90% or more (almost completely withered))	4 (Herbicidal rate of 70% or more and less than 90%)	2 (Herbicidal rate of 20% or more and less than 40%)	5 (Herbicidal rate of 90% or more (almost completely withered))	5 (Herbicidal rate of 90% or more (almost completely withered))	5 (Herbicidal rate of 90% or more (almost completely withered))	2 (Herbicidal rate of 20% or more and less than 40%)	0 (Herbicidal rate of 5% or less (almost no effect))	2 (Herbicidal rate of 20% or more and less than 40%)	5 (Herbicidal rate of 90% or more (almost completely withered))	5 (Herbicidal rate of 90% or more (almost completely withered))	4 (Herbicidal rate of 70% or more and less than 90%)	5 (Herbicidal rate of 90% or more (almost completely withered))	5 (Herbicidal rate of 90% or more (almost completely withered))	5 (Herbicidal rate of 90% or more (almost completely withered))	5 (Herbicidal rate of 90% or more (almost completely withered))	5 (Herbicidal rate of 90% or more (almost completely withered))
